Where a name gives a salt, the structure may show the parent alone.
target: T1, human TRPC6 (Homo sapiens, UniProt Q9Y210); experiment: TRPC6 calcium flux assay (FLIPR, OAG-stimulated calcium influx); type: cell-based; details: HEK293 cells stably transfected with human TRPC6, read-out: hTRPC6 Potency
T1 construct: expressed in transfected cells
T1 sequence (Q9Y210 1-931): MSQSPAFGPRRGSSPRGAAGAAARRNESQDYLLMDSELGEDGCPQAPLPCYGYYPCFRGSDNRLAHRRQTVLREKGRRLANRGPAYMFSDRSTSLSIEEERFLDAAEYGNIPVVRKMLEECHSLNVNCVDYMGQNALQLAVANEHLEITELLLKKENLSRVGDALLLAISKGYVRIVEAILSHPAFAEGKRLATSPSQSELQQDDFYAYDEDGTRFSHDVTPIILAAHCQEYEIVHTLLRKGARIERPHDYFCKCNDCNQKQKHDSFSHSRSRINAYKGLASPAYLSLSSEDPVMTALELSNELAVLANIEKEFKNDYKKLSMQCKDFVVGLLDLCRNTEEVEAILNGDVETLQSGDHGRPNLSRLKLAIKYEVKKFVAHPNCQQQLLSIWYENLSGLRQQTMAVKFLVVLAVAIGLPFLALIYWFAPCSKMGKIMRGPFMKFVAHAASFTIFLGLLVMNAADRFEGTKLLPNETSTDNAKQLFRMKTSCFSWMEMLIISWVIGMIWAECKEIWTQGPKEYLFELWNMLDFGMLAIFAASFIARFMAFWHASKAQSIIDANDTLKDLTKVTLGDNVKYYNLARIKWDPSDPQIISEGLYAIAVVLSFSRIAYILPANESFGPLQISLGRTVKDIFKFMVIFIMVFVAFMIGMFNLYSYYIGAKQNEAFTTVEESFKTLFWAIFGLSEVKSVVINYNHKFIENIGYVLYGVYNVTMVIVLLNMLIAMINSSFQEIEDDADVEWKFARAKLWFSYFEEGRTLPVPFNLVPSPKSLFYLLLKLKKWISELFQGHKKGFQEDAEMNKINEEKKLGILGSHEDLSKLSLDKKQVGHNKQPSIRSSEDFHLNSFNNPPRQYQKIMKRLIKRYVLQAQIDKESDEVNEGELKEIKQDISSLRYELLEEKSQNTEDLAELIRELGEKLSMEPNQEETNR
Protocol: Biological Example 1 TRPC6 Calcium Flux Assay
Potency of TRPC6 (Transient receptor potential channel family C6) inhibitors were measured by their inhibition of Calcium influx trigged by […] (1-Oleoyl-2-acetyl-sn-glycerol, Millipore Sigma, O6754) stimulation on HEK293 cells stablely transfected with human TRPC6 using a FLIPR tetra system. Cells were grown in a humidified environment at 37° C. under 5% CO2 using the growth medium with the following selective reagents (Dulbecco's Modified Eagle's Medium (DMEM) high glucose, 10% Fetal Bovine Serum, 1×PSGlu (penicillin-streptomycin glutamine), 1×NEAA (Non-essential amino acid), 1× Na Pyruvate and 200 ug/ml Hygromycin). For general passage, cells were grown to 70-90% confluency; the media was removed, and the cells were gently washed 2 times with calcium and magnesium free PBS (phosphate-buffered saline). Trypsin (3 mL) was applied for 5 minutes at 37° C. The cells were dislodged by rapping flask against base of a hand and 7 mL of growth medium was added to deactivate trypsin and re-suspend cells. The usual splitting schedule was 1:5 every 2-3 days.
Cells were plated the day before the assay, plating cell density is 1.0-1.5×10^4/25 μl/well in poly-D-lysine (PDL) coated 384-well plates using either multichannel pipettes or multidrop. These cells were first incubated with fluorescence dye at room temperature for 90-120 minutes after they were grown on PDL-coated 384-well black plates overnight (Dye loading buffer 10 ml example: 9 mL assay buffer, 1 mL, 10×PBX signal enhancer, 10 μL Calcium indicator). The cells were incubated with a dose of compounds for 25 minutes before being stimulated with TRPC6 agonist OAG. The OAG solution was prepared by adding OAG into assay buffer (Ca ringer solution base: 10 mM HEPES (4-(2-hydroxyethyl)-1-piperazine-ethanesulfonic acid), 4 mM MgCl2, 120 mM NaCl, 5 mM KCl, pH=7.2 @25° C.)+0.1% BSA+2 mM CaCl2) to the concentration of 0.2 mM/2% DMSO, which achieves a final on cell concentration of 50 uM/0.5% DMSO. 12.5 uL OAG mixture was added and the activation of the TRPC6 channel was measured by the change of intracellular Calcium levels on FLIPR terra system.
Data was acquired by measuring the fluorescent peak signal subtracted from the background during the 180 second imaging frame. Each data point is further normalized to 100% of OAG triggered signal vs. buffer. Table 16 provides the IC50 for each compound, which data is obtained by plotting peak signal over the compound dose.

SMILES | IC50 [nM]
N[C@@H]1CN(c2nc3cc(F)c(F)cc3n2CC(=O)N2CCN(c3cnccn3)CC2)CC[C@H]1F [Example 511, 2-(2-((3R,4R)-3-amino-4-fluoropiperidin-1-yl)-5,6-difluoro-1H-benzo[d]imidazol-1-yl)-1-(4-(pyrazin-2-yl)piperazin-1-yl)ethan-1-one] | 158
CN(C(=O)Cn1c(N2CC[C@@H](F)[C@H](N)C2)nc2cc(F)c(F)cc21)C(C)(C)C#N [Example 533, 2-(2-((3R,4R)-3-amino-4-fluoropiperidin-1-yl)-5,6-difluoro-1H-benzo[d]imidazol-1-yl)-N-(2-cyanopropan-2-yl)-N-methylacetamide] | > 3750
N#Cc1ccc(Cn2c(N3CCCC4(CCCN4)C3)nc3ccccc32)nc1 (racemic) [Example 128, 6-((2-((5R)-1,7-diazaspiro[4.5-]decan-7-yl)-1H-benzimidazol-1-yl)methyl)-3-pyridinecarbonitrile, 6-((2-((5S)-1,7-diazaspiro[4.5]decan-7-yl)-1H-benzimidazol-1-yl)methyl)-3-pyridinecarbonitrile] | 49.4
N[C@@H]1CN(c2nc3cc(F)c(F)cc3n2[C@H]2CCN(C3CCOCC3)C2=O)CC[C@H]1F [Example 548, (S)-3-(2-((3R,4R)-3-amino-4-fluoropiperidin-1-yl)-5,6-difluoro-1H-benzo[d]imidazol-1-yl)-1-(tetrahydro-2H-pyran-4-yl)pyrrolidin-2-one] | 382
N#Cc1ccc(Cn2c(N3CC[C@@H](F)[C@H](N)C3)nc3cc(F)ccc32)nc1 [Example 49, 6-((2-((3R,4R)-3-amino-4-fluoropiperidin-1-yl)-5-fluoro-1H-benzo[d]imidazol-1-yl)methyl)nicotinonitrile hydrochloride] | 1.09
N[C@@H]1CN(c2nc3cc(F)c(F)cc3n2Cc2cc(-c3cccc(Cl)c3)no2)CC[C@H]1F [Example 263, (3R,4R)-1-(1-((3-(3-chlorophenyl)-1,2-oxazol-5-yl)methyl)-5,6-difluoro-1H-benzimidazol-2-yl)-4-fluoro-3-piperidinamine] | 765
COc1ccc2c(c1)nc(N1CC[C@@H](F)[C@H](N)C1)n2CC(=O)N(C)C [Example 450, 2-(2-((3R,4R)-3-amino-4-fluoropiperidin-1-yl)-5-methoxy-1H-benzo[d]imidazol-1-yl)-N,N-dimethylacetamide] | > 3750
N[C@@H]1CCCN(c2nc3ccccc3n2Cc2ccc(Cl)cc2Cl)C1 [Example 395, (R)-1-(1-(2,4-dichlorobenzyl)-1H-benzo[d]imidazol-2-yl)piperidin-3-amine] | 1120
N#Cc1ccc(Cn2c(N3CC[C@H](O)[C@H](N)C3)nc3cc(F)ccc32)nc1 [Example 312, 6-((2-((3R,4S)-3-amino-4-hydroxypiperidin-1-yl)-5-fluoro-1H-benzo[d]imidazol-1-yl)methyl)nicotinonitrile] | 2860
N[C@@H]1CN(c2nc3cc(F)c(F)cc3n2CC(=O)N2CCCCCCC2)CC[C@H]1F [Example 510, 2-(2-((3R,4R)-3-amino-4-fluoropiperidin-1-yl)-5,6-difluoro-1H-benzo[d]imidazol-1-yl)-1-(azocan-1-yl)ethan-1-one] | 139
N[C@@H]1CN(c2nc3cc(OC(F)(F)F)ccc3n2CC(=O)N2CCOCC2)CC[C@H]1F [Example 475, 2-(2-((3R,4R)-3-amino-4-fluoropiperidin-1-yl)-5-(trifluoromethoxy)-1H-benzo[d]imidazol-1-yl)-1-morpholinoethan-1-one] | 620
CN(C(=O)Cn1c(N2CC[C@@H](F)[C@H](N)C2)nc2cc(F)c(F)cc21)C1CCS(=O)(=O)C1 (mixture of isomers) [Example 525, 2-(2-((3R,4R)-3-amino-4-fluoropiperidin-1-yl)-5,6-difluoro-1H-benzo[d]imidazol-1-yl)-N-(1,1-dioxidotetrahydrothiophen-3-yl)-N-methylacetamide] | 1780
N#Cc1ccc(Cn2c(N3CC[C@@H](F)[C@H](N)C3)nc3c(Cl)cc(F)cc32)nc1 [Example 144, 6-((2-((3R,4R)-3-amino-4-fluoropiperidin-1-yl)-4-chloro-6-fluoro-1H-benzo[d]imidazol-1-yl)methyl)nicotinonitrile 2,2,2-trifluoroacetate] | 0.462
CS(=O)(=O)c1ccc2c(c1)nc(N1CC[C@@H](F)[C@H](N)C1)n2Cc1ccc(Cl)cn1 [Example 30, (3R,4R)-1-(1-((5-chloropyridin-2-yl)methyl)-5-(methylsulfonyl)-1H-benzo[d]imidazol-2-yl)-4-fluoropiperidin-3-amine] | 1940
N[C@@H]1CN(c2nc3cc(F)c(F)cc3n2CC(=O)N2CCc3sccc3C2)CC[C@H]1F [Example 505, 2-(2-((3R,4R)-3-amino-4-fluoropiperidin-1-yl)-5,6-difluoro-1H-benzo[d]imidazol-1-yl)-1-(6,7-dihydrothieno[3,2-c]pyridin-5(4H)-yl)ethan-1-one] | 43.2
CN1CCC(n2c(N3CC[C@@H](F)[C@H](N)C3)nc3cc(F)c(F)cc32)C1=O (mixture of isomers) [Example 238, 3-(2-((3R,4R)-3-amino-4-fluoropiperidin-1-yl)-5,6-difluoro-1H-benzo[d]imidazol-1-yl)-1-methylpyrrolidin-2-one] | 185
COc1cc(C#N)ccc1Cn1c(N2CCC[C@@H](N)C2)nc2ccccc21 [Example 396, (R)-4-((2-(3-aminopiperidin-1-yl)-1H-benzo[d]imidazol-1-yl)methyl)-3-methoxybenzonitrile] | 18200
C[C@@H](c1ccc(C#N)cn1)n1c(N2CC[C@@H]3OCCN[C@H]3C2)nc2c(F)cc(F)cc21 [Example 269, 6-((1S)-1-(4,6-difluoro-2-((4aS,8aS)-hexahydro-2H-pyrido[4,3-b][1,4]oxazin-6(5H)-yl)-1H-benzimidazol-1-yl)ethyl)-3-pyridinecarbonitrile] | 2.04
C[C@H](c1cc(F)ccc1F)n1c(N2CC[C@@H](F)[C@H](N)C2)nc2cc(F)c(F)cc21 [Example 334, (3R,4R)-1-(1-((1R)-(2,5-difluorophenyl)ethyl)-5,6-difluoro-1H-benzimidazol-2-yl)-4-fluoro-3-piperidinamine] | 3540
N#Cc1ccc(Cn2c(N3CC[C@@H](F)[C@H](N)C3)nc3cc(F)c(F)cc32)nc1 [Example 72, 6-((2-((3R,4R)-3-amino-4-fluoropiperidin-1-yl)-5,6-difluoro-1H-benzo[d]imidazol-1-yl)methyl)nicotinonitrile] | 0.448
CN(C)C(=O)Cn1c(N2CC[C@@H](F)[C@H](N)C2)nc2ccc(F)cc21 [Example 566, 2-(2-((3R,4R)-3-amino-4-fluoropiperidin-1-yl)-6-fluoro-1H-benzo[d]imidazol-1-yl)-N,N-dimethylacetamide] | 35.2
N#Cc1ccc(Cn2c(N3CC[C@H](F)[C@H](N)C3)nc3ccccc32)nc1 [Example 73, 6-((2-((3R,4S)-3-amino-4-fluoropiperidin-1-yl)-1H-benzo[d]imidazol-1-yl)methyl)nicotinonitrile] | 1.09

From patent US11332459B2 (TEIJIN PHARMA LIMITED, priority 2017, dated 2022)
